In patent US6150524A, “Morphine derivatives with analgesic activity” (priority 1995, dated 2000):
Where two headings read alike, the source gives them in different places.

Test system: mice
Assay: Haffner test ("Tail clip test") in mice
Format: in vivo, mouse (male CD mice)
Conditions: Mus musculus, read-out: ED50 (Haffner test in mice)
Text: METHOD: Haffner Test ("Tail clip test") in Mice
The Haffner test is a standard procedure for determining the pain-inhibiting effect of powerful analgesics, mostly of the opioid type, in mice. The method largely corresponds to the one described by Bianchi C. and Franceschini J. (Brit. J. Pharmacol. 9:280, 1954; Experimental observations on Haffner's method for testing analgesic drugs).
Male CD mice (from Charles River, Sulzfeld, FRG) with an average weight of 30±5 grams were used. The animals were kept under standard conditions (temperature: 22±2° C., relative humidity: 55±10%, air exchange: 15-20 times per hour and 12/12 hours light/darkness cycle). The animals had unlimited access to food and water until the test began. During the test the animals were kept singly in Makrolon Type III cages with no bedding. A 3.5 cm arterial clamp was placed about 2 cm from the base of the tail and the pain reaction time was measured in seconds. Any active attempt by the animal to remove the clamp was assessed as a pain reaction. To prevent tissue damage, the test was stopped after at most 30 seconds in every case (cut off latency). In a preliminary test, mice with a pain reaction time of less than 5 seconds (base line latency) were selected for the actual test, which was carried out at specific intervals after the administration of the drug (test latency).
Corresponding quantities of test substances were dissolved in physiological saline solution for intravenous administration or in twice distilled water for oral administration. The total volume administered was 10 ml/kg of body weight in each case. Controls were given the same solvent but with no test substance. 8-10 mice were tested in each group.
The results were plotted as individual values (seconds), mean value±scattering (seconds) per group and as the percent of the maximum possible effect (% MPE=percent of Maximum Possible Effect). [formula] Significant differences between the control and test groups were calculated by means of an unpaired, two-sided Students T-test (*2P<0.05;**2P<0.01; 2P<0.001).
The ED50 value describes the dosage at which 50% of the maximum possible effect (MPE) is achieved. The ED50 value is calculated by linear regression between the dose and the % MPE.

Compound	ED50 (po, 0.5 h, p.o., 30 min.)	ED50 (po, 1 h, p.o., 60 min.)	ED50 (po, 2 h, p.o., 120 min.)	ED50 (po, 3 h, p.o., 180 min.)	ED50 (iv, 10 min, i.v., 10 min.)	ED50 (iv, 0.5 h, i.v., 30 min.)	ED50 (iv, 1 h, i.v., 60 min.)	ED50 (iv, 2 h, i.v., 120 min.)
COC(=O)CCCCC(=O)O[C@H]1CC[C@H]2[C@H]3Cc4ccc(O)c5c4[C@@]2(CCN3C)[C@H]1O5 [Example 4, 4,5α-Epoxy-6α-((5-methoxycarbonyl-valeryl)-oxy)-17-methyl-morphinan-3-ol acetate]	0.039 µmol/kg	0.044 µmol/kg	0.073 µmol/kg	0.189 µmol/kg	–	–	–	–
COC(=O)c1ccc(CO[C@H]2C=C[C@H]3[C@H]4Cc5ccc(O)c6c5[C@@]3(CCN4C)[C@H]2O6)cc1 [Example 5]	0.06 µmol/kg	0.068 µmol/kg	0.072 µmol/kg	0.09 µmol/kg	0.0008 µmol/kg	0.0008 µmol/kg	0.0032 µmol/kg	0.0095 µmol/kg
CCOC(=O)CCCCCO[C@H]1C=C[C@H]2[C@H]3Cc4ccc(O)c5c4[C@@]2(CCN3C)[C@H]1O5 [Example 22]	0.055 µmol/kg	0.09 µmol/kg	0.096 µmol/kg	0.086 µmol/kg	0.003 µmol/kg	0.0037 µmol/kg	0.01 µmol/kg	0.012 µmol/kg
COc1ccc(CCCC(=O)O[C@H]2C=C[C@H]3[C@H]4Cc5ccc(O)c6c5[C@@]3(CCN4C)[C@H]2O6)cc1 [Example 19]	0.084 µmol/kg	0.107 µmol/kg	0.128 µmol/kg	0.178 µmol/kg	0.002 µmol/kg	0.0025 µmol/kg	0.0033 µmol/kg	0.0056 µmol/kg
COC(=O)CCCCCCC(=O)O[C@H]1C=C[C@H]2[C@H]3Cc4ccc(O)c5c4[C@@]2(CCN3C)[C@H]1O5 [Example 22, 4,5α-Epoxy-6α-((6-methoxycarbonyl-hexylcarbonyl)-oxy)-17-methyl-morphinan-7-en-3-ol]	0.109 µmol/kg	0.208 µmol/kg	0.298 µmol/kg	0.315 µmol/kg	0.0025 µmol/kg	0.0033 µmol/kg	0.005 µmol/kg	0.022 µmol/kg
CN1CC[C@]23c4c5ccc(O)c4O[C@H]2[C@@H](OCCCCOC(=O)c2ccccc2)C=C[C@H]3[C@H]1C5 [Example 4]	0.035 µmol/kg	0.046 µmol/kg	0.058 µmol/kg	0.069 µmol/kg	0.0004 µmol/kg	0.0031 µmol/kg	0.0119 µmol/kg	0.0217 µmol/kg
CCCC(COC1C=CC2C3Cc4ccc(O)c5c4C2(CCN3C)C1O5)OC(C)=O (centres unmarked) [Example 32]	0.068 µmol/kg	0.12 µmol/kg	0.154 µmol/kg	0.232 µmol/kg	0.001 µmol/kg	0.003 µmol/kg	0.0099 µmol/kg	0.024 µmol/kg
CN1CC[C@]23c4c5ccc(O)c4O[C@H]2[C@@H](OCCCO)C=C[C@H]3[C@H]1C5 [Example 39]	0.027 µmol/kg	0.035 µmol/kg	0.149 µmol/kg	0.283 µmol/kg	–	–	–	–
